Assays:
[1] = tested on: Prostate Specific Antigen (PSA); test: PSA levels in prostate cancer patients under initial dose / maintenance dose treatment; assay type: in vivo, human; conditions: for PSA levels decrease during first period: prostate cancer patients
Procedure: (§1) 130 mg ozarelix is given as a single monthly initial dose per i.m. injection every 4 weeks to patients suffering from prostate cancer for a first period of 3 months. […] Subsequently, patients are treated with single monthly maintenance doses of 30 mg ozarelix given per i.m. injection over a period of 6 months. […] The treatment scheme is then repeated continuously (chronic treatment).
(§2) 200 mg ozarelix is given as a single initial dose per i.m. injection once every 3 months to patients suffering from prostate cancer for a first period of 3 to 6 months. […] Subsequently, patients are treated with single monthly maintenance doses of 40 mg ozarelix given per i.m. injection over a period of 6 months. […] The treatment scheme is then repeated continuously (chronic treatment).
as §1, with “3.75” for “130”, “leuprorelin (leuprolide) are” for “ozarelix is”, “6” for “3”, “20” for “30”, “9” for “6”
as §2, with “11.25” for “200”, “leuprorelin (leuprolide) are” for “ozarelix is”, “three” for “3”, “3” for “3 to 6”, “50” for “40”, “3” for “6”

testosterone levels = test: Testosterone levels in prostate cancer patients under initial dose / maintenance dose treatment; assay type: in vivo, human; conditions: for testosterone levels during first period: prostate cancer patients
Procedure: as §1, §2
as §1, with “3.75” for “130”, “leuprorelin (leuprolide) are” for “ozarelix is”, “6” for “3”, “20” for “30”, “9” for “6”
as §2, with “11.25” for “200”, “leuprorelin (leuprolide) are” for “ozarelix is”, “three” for “3”, “3” for “3 to 6”, “50” for “40”, “3” for “6”

[2] = Example 3: 3.75 mg leuprorelin i.m. single monthly initial dose every 4 weeks, first period 6 months
[3] = Example 4: 11.25 mg leuprorelin i.m. single initial dose once every three months, first period 3 months
[4] = Example 1: 130 mg ozarelix i.m. single monthly initial dose every 4 weeks, first period 3 months
[5] = Example 1: monthly maintenance doses of 30 mg ozarelix i.m. over 6 months, after 130 mg ozarelix initial doses
[6] = Example 2: 200 mg ozarelix i.m. single initial dose once every 3 months, first period 3 to 6 months
[7] = Example 2: monthly maintenance doses of 40 mg ozarelix i.m. over 6 months, after 200 mg ozarelix initial doses
[8] = Example 3: monthly maintenance doses of 20 mg ozarelix i.m. over 9 months, after 3.75 mg leuprorelin initial doses
[9] = Example 4: monthly maintenance doses of 50 mg ozarelix i.m. over 3 months, after 11.25 mg leuprorelin initial dose

| Compound | PSA levels decrease during first period [1, 2] | PSA levels decrease during first period [1, 3] | testosterone levels during first period (testosterone levels; [2]) | testosterone levels during first period (testosterone levels; [3]) | PSA levels decrease during first period [1, 4] | PSA levels during second period [1, 5] | PSA levels decrease during first period [1, 6] | PSA levels during second period [1, 7] | PSA levels during second period [1, 8] | PSA levels during second period [1, 9] | testosterone levels during first period (testosterone levels; [4]) | testosterone levels during second period (testosterone levels; [5]) | testosterone levels during first period (testosterone levels; [6]) | testosterone levels during second period (testosterone levels; [7]) | testosterone levels during second period (testosterone levels; [8]) | testosterone levels during second period (testosterone levels; [9]) |
| --- | --- | --- | --- | --- | --- | --- | --- | --- | --- | --- | --- | --- | --- | --- | --- | --- |
| CCNC(=O)[C@@H]1CCCN1C(=O)[C@H](CCCNC(=N)N)NC(=O)[C@H](CC(C)C)NC(=O)[C@@H](CC(C)C)NC(=O)[C@H](Cc1ccc(O)cc1)NC(=O)[C@H](CO)NC(=O)[C@H](Cc1c[nH]c2ccccc12)NC(=O)[C@H](Cc1c[nH]cn1)NC(=O)[C@@H]1CCC(=O)N1 [leuprorelin] | up to 95% | up to 95% | quickly reach castration level | quickly reach castration level | – | – | – | – | – | – | – | – | – | – | – | – |
| ozarelix | – | – | – | – | up to 95% | remain stably low until the end of the second period | up to 95% | remain stably low until the end of the second period | remain stably low until the end of the second period | remain stably low until the end of the second period | quickly reach castration level | above 0.5 ng/mL | quickly reach castration level | above 0.5 ng/mL | above 0.5 ng/mL | above 0.5 ng/mL |
